Results reported in ChEMBL document CHEMBL5107977, “Inhibition of MARK4 by serotonin as an attractive therapeutic approach to combat Alzheimer's disease and neuroinflammation” (RSC Med Chem, 2022).

Experiments:
[1] = biological target: T1, MAP/microtubule affinity-regulating kinase 4 (Homo sapiens) (UniProt Q96L34); assay: Binding affinity to MARK4 (unknown origin) assessed as Gibbs free energy change by MM-GBSA method
T1 sequence (whole entry): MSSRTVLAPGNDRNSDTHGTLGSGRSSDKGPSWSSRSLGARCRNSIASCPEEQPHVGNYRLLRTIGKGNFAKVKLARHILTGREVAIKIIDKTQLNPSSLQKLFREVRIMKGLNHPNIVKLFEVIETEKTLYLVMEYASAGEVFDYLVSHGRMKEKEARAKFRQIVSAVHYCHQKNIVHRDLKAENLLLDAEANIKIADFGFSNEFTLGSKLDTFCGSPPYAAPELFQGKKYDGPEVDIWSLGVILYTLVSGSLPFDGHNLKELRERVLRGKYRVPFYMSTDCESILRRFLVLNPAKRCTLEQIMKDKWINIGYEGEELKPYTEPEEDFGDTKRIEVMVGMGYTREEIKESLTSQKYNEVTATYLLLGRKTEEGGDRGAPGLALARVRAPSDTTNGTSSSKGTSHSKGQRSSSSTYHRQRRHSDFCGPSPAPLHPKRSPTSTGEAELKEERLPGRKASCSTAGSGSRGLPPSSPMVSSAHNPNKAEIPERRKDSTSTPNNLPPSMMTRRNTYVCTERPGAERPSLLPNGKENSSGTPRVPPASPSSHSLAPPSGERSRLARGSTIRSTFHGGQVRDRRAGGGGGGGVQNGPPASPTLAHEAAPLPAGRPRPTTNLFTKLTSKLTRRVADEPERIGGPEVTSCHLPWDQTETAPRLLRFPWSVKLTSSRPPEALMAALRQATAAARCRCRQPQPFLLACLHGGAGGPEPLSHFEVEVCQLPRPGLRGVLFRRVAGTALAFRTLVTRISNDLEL

[2] = biological target: T1, MAP/microtubule affinity-regulating kinase 4 (Homo sapiens); assay: Binding affinity to MARK4 (unknown origin) assessed as binding constant by fluorescence binding assay based spectroscopy
[3] = biological target: T1, MAP/microtubule affinity-regulating kinase 4 (Homo sapiens); assay: Binding affinity to MARK4 (unknown origin) assessed as association constant by isothermal titration calorimetry
[4] = biological target: T1, MAP/microtubule affinity-regulating kinase 4 (Homo sapiens); assay: Binding affinity to MARK4 (unknown origin) assessed as change in enthalpy by isothermal titration calorimetry
[5] = biological target: T1, MAP/microtubule affinity-regulating kinase 4 (Homo sapiens); assay: Binding affinity to MARK4 (unknown origin) assessed as change in entropy by isothermal titration calorimetry
[6] = biological target: T2, MAP/microtubule affinity-regulating kinase 4 (Homo sapiens, UniProt Q96L34); assay: Inhibition of MARK4 (unknown origin) ATPase activity using ATP as substrate incubated for 1.5 hr in presence of MgCl2 by Biomol green reagent based ELISA
T2 sequence (Q96L34 whole entry): T1 sequence (whole entry)

NCCc1c[nH]c2ccc(O)cc12 [SEROTONIN]
deltaG [1]: -32.8 kcal/mol
K [2]: 0.3 10^6/M
Ka [3]: 148 10^4/M
deltaH [4]: -88.2 kcal/mol
deltaS [5]: -286 cal/mol/deg
IC50 [6]: 2990 nM
